Test results published in patent publication US10111435B2, “Herbicidal compositions containing N-(1,3,4-oxadiazol-2-yl)-aryl carboxylic acid amides” (BAYER CROPSCIENCE AKTIENGESELLSCHAFT, priority 2013, dated 2018).

What was measured:
Assay type in all cases: in vivo
Solanum nigrum (SOLNI) = assay: greenhouse post-emergence herbicidal efficacy against SOLNI
Method: (§1) All trials whose results are shown were conducted in a greenhouse by the methodology specified below. The effect of the inventive herbicidal compositions was examined on the following harmful plants 14 and 21 days after application:
(§2) Echinochloa crus-galli (ECHCG), Eleusine indica (ELEIN), Setaria viridis (SETVI), Amaranthus retroflexus (AMARE), Chenopodium album (CHEAL), Kochia scoparia (KCHSC), Solanum nigrum (SOLNI), Avena fatua (AVEFA), Bromus sterilis (BROST), Lolium multiflorum (LOLMU), Phalaris minor (PHAMI), Poa annua (POAAN), Galium aparine (GALAP), Matricaria inodora (MATIN) and Polygonum convolvulus (POLCO).
(§3) The harmful plant seeds were sown in pots (diameter 8 cm) with sandy loam soil and germinated under optimal conditions. The inventive herbicidal compositions or the active ingredients alone were applied post-emergence to the planted pots with a spray volume of 300 L/ha. The trial was conducted in a greenhouse under optimum growth conditions. The herbicidal effects were assessed visually by comparison of untreated and treated plants. The percentages mean: 0%=no effects, 100%=the plants die off completely). The percentages are used to calculate interactions between individual treatments and combination treatments according to S. R. Colby, Weeds 15, pages 20 to 22 (1967).
(§4) The abbreviations mean: • a.i.=active ingredient • E^C=expected value according to Colby (E^C=A+B−A×B/100) • Diff: =difference (%) of measured value from expected value (%) (measured value minus expected value)
(§5) Assessment: • measured value E is greater than E^C:->synergism (+ diff.) • measured value E equals E^C:->additive effect • measured value E is smaller than E^C:->antagonism(− diff.)

DIGSA = assay: greenhouse post-emergence herbicidal efficacy against DIGSA
Method: as §1, §3, §4, §5

[1] = system: Polygonum convolvulus (POLCO); assay: greenhouse post-emergence herbicidal efficacy against POLCO
Procedure, shortened: (§6)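 Seeds were sown in 8 cm pots of sandy loam and germinated under optimal conditions. Compositions or single active ingredients were sprayed post-emergence at 300 L/ha in the greenhouse. Visual % damage versus untreated plants (0% none, 100% complete kill) was scored 14 and 21 days after application, with Colby expected values (E^C=A+B−A×B/100) used to judge synergism.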

[2] = system: Lolium multiflorum (LOLMU); assay: greenhouse post-emergence herbicidal efficacy against LOLMU
Procedure, shortened: as §6

Setaria viridis (SETVI) = assay: greenhouse post-emergence herbicidal efficacy against SETVI
Procedure, shortened: (§7)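 Greenhouse, optimum conditions; sandy-loam 8 cm pots; post-em spray 300 L/ha. Visual scoring vs untreated at 14/21 DAA, 0–100% scale.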

Bromus sterilis (BROST) = assay: greenhouse post-emergence herbicidal efficacy against BROST
Procedure, shortened: as §6

[3] = system: Amaranthus retroflexus (AMARE); assay: greenhouse post-emergence herbicidal efficacy against AMARE
Method: as §1, §2, §3, §4, §5

Kochia scoparia (KCHSC) = assay: greenhouse post-emergence herbicidal efficacy against KCHSC
Method: as §1, §2, §3, §4, §5

Avena fatua (AVEFA) = assay: greenhouse post-emergence herbicidal efficacy against AVEFA
Procedure, shortened: as §6

[4] = system: Chenopodium album (CHEAL); assay: greenhouse post-emergence herbicidal efficacy against CHEAL
Procedure, shortened: as §7

[5] = system: Matricaria inodora (MATIN); assay: greenhouse post-emergence herbicidal efficacy against MATIN; conditions: 21 days after application
Procedure, shortened: as §6

Eleusine indica (ELEIN) = assay: greenhouse post-emergence herbicidal efficacy against ELEIN; conditions: for pest or weed control at 5 g/ha / pest or weed control at 20 g/ha: Eleusine indica, post-emergence; for pest or weed control at 5 g/ha: 5 g of a.i./ha; for pest or weed control at 20 g/ha: 20 g of a.i./ha
Procedure, shortened: as §7

[6] = system: Echinochloa crus-galli (ECHCG); assay: greenhouse post-emergence herbicidal efficacy against ECHCG
Procedure, shortened: as §7

Galium aparine (GALAP) = assay: greenhouse post-emergence herbicidal efficacy against GALAP
Procedure, shortened: as §6

Phalaris minor (PHAMI) = assay: greenhouse post-emergence herbicidal efficacy against PHAMI
Procedure, shortened: as §6

Poa annua (POAAN) = assay: greenhouse post-emergence herbicidal efficacy against POAAN
Procedure, shortened: as §6

[7] = 14 days after application, 0.5 g of a.i./ha
[8] = 14 days after application, 2 g of a.i./ha
[9] = 21 days after application, 0.5 g of a.i./ha
[10] = 21 days after application, 2 g of a.i./ha
[11] = 14 days after application, g of a.i./ha: A1-7 2.5, saflufenacil 2
[12] = 14 days after application, g of a.i./ha: A1-7 2.5, saflufenacil 8
[13] = 21 days after application, g of a.i./ha: A1-7 10, saflufenacil 8
[14] = 14 days after application, 1 g of a.i./ha
[15] = 14 days after application, 4 g of a.i./ha
[16] = 21 days after application, 4 g of a.i./ha
[17] = 21 days after application, 1 g of a.i./ha
[18] = 14 days after application, g of a.i./ha: A1-60 2.5, isoproturon 400
[19] = 14 days after application, g of a.i./ha: A1-60 2.5, isoproturon 1600
[20] = 14 days after application, g of a.i./ha: A1-60 10, isoproturon 400
[21] = 14 days after application, g of a.i./ha: A1-60 10, isoproturon 1600
[22] = 21 days after application, g of a.i./ha: A1-60 10, isoproturon 400
[23] = 21 days after application, g of a.i./ha: A1-60 10, isoproturon 1600
[24] = 21 days after application, g of a.i./ha: A1-60 2.5, isoproturon 400
[25] = 14 days after application, 5 g of a.i./ha
[26] = 14 days after application, 20 g of a.i./ha
[27] = 21 days after application, 5 g of a.i./ha
[28] = 21 days after application, 20 g of a.i./ha
[29] = 336 h, 14 days after application
[30] = 504 h, 21 days after application

CCS(=O)(=O)c1c(C(F)(F)F)ccc(C(=O)Nc2nnc(C)o2)c1Cl [A1-7]
20%: Efficacy (Solanum nigrum (SOLNI); [8]) | Efficacy (DIGSA; [8]) | Efficacy [4, 10]
15%: Efficacy (Avena fatua (AVEFA); [11])
0%: Efficacy (Solanum nigrum (SOLNI); [9]) | Efficacy ([1]; 21 days after application, g of a.i./ha: A1-7 2.5, saflufenacil 2) | Efficacy ([1]; 21 days after application, g of a.i./ha: A1-7 2.5, saflufenacil 8) | Efficacy [2, 11] | Efficacy [2, 12] | Efficacy (Kochia scoparia (KCHSC); [7]) | Efficacy [4, 7]
30%: Efficacy (Setaria viridis (SETVI); [9]) | Efficacy [3, 7]
10%: Efficacy (Solanum nigrum (SOLNI); [7]) | Efficacy (Solanum nigrum (SOLNI); [10]) | Efficacy (DIGSA; [10]) | Efficacy [1, 11] | Efficacy [1, 12] | Efficacy ([1]; 21 days after application, g of a.i./ha: A1-7 10, saflufenacil 2) | Efficacy [1, 13] | Efficacy (Kochia scoparia (KCHSC); [9]) | Efficacy [4, 9]
50%: Efficacy [4, 8]
5%: Efficacy (Bromus sterilis (BROST); [13])
25%: Efficacy ([1]; 14 days after application, g of a.i./ha: A1-7 10, saflufenacil 2) | Efficacy ([1]; 14 days after application, g of a.i./ha: A1-7 10, saflufenacil 8)
75%: Efficacy (Setaria viridis (SETVI); [10])

Cc1nnc(NC(=O)c2ccc(C(F)(F)F)c([S+](C)[O-])c2C)o1 (centres unmarked) [A1-60]
60%: Efficacy [3, 16]
65%: Efficacy (Solanum nigrum (SOLNI); [14]) | Efficacy (Solanum nigrum (SOLNI); [15]) | Efficacy [6, 14]
25%: Efficacy (Galium aparine (GALAP); [18]) | Efficacy (Galium aparine (GALAP); [19]) | Efficacy (Phalaris minor (PHAMI); [20]) | Efficacy (Phalaris minor (PHAMI); [21])
93%: Efficacy (DIGSA; [15])
20%: Efficacy (Solanum nigrum (SOLNI); [17]) | Efficacy [3, 17] | Efficacy (Phalaris minor (PHAMI); [22]) | Efficacy (Poa annua (POAAN); [22])
5%: Efficacy (Bromus sterilis (BROST); [22]) | Efficacy (Bromus sterilis (BROST); [23]) | Efficacy (Avena fatua (AVEFA); [22]) | Efficacy (Avena fatua (AVEFA); [23])
75%: Efficacy (Eleusine indica (ELEIN); [16]) | Efficacy [6, 16]
30%: Efficacy (Solanum nigrum (SOLNI); [16]) | Efficacy (Galium aparine (GALAP); [20]) | Efficacy (Galium aparine (GALAP); [21])
50%: Efficacy (Setaria viridis (SETVI); [17])
0%: Efficacy ([5]; g of a.i./ha: A1-60 2.5, isoproturon 400) | Efficacy [2, 18] | Efficacy [2, 19] | Efficacy [2, 20] | Efficacy [2, 21] | Efficacy (Bromus sterilis (BROST); [18]) | Efficacy (Bromus sterilis (BROST); [19]) | Efficacy (Avena fatua (AVEFA); [18]) | Efficacy (Avena fatua (AVEFA); [20]) | Efficacy (Avena fatua (AVEFA); [21]) | Efficacy (Avena fatua (AVEFA); [24]) | Efficacy (Galium aparine (GALAP); [24]) | Efficacy (Galium aparine (GALAP); 21 days after application, g of a.i./ha: A1-60 2.5, isoproturon 1600) | Efficacy (Galium aparine (GALAP); [22]) | Efficacy (Galium aparine (GALAP); [23]) | Efficacy (Phalaris minor (PHAMI); [24]) | Efficacy (Poa annua (POAAN); [19])
85%: Efficacy (Setaria viridis (SETVI); [15])
3%: Efficacy [2, 22] | Efficacy [2, 23]
40%: Efficacy ([5]; g of a.i./ha: A1-60 10, isoproturon 400) | Efficacy (Eleusine indica (ELEIN); [17]) | Efficacy [6, 17]
15%: Efficacy (Bromus sterilis (BROST); [20]) | Efficacy (Bromus sterilis (BROST); [21])
70%: Efficacy (DIGSA; [16]) | Efficacy (Setaria viridis (SETVI); [14]) | Efficacy (Setaria viridis (SETVI); [16]) | Efficacy (Eleusine indica (ELEIN); [14]) | Efficacy [3, 15]
10%: Efficacy (Phalaris minor (PHAMI); [18]) | Efficacy (Poa annua (POAAN); [20]) | Efficacy (Poa annua (POAAN); [21])
90%: Efficacy (Eleusine indica (ELEIN); [15]) | Efficacy [6, 15]

CCOC(=O)[C@@H](C)Oc1ccc(Oc2nc3ccc(Cl)cc3o2)cc1 [fenoxaprop-P-ethyl]
80%: Efficacy (Setaria viridis (SETVI); [28])
0%: Efficacy (Solanum nigrum (SOLNI); [25]) | Efficacy (Solanum nigrum (SOLNI); [26]) | Efficacy (Solanum nigrum (SOLNI); [27]) | Efficacy (Solanum nigrum (SOLNI); [28]) | Efficacy [3, 25] | Efficacy [3, 26] | Efficacy (Kochia scoparia (KCHSC); [25]) | Efficacy (Kochia scoparia (KCHSC); [26]) | Efficacy (Kochia scoparia (KCHSC); [28]) | Efficacy [4, 25] | Efficacy [4, 26] | Efficacy [4, 27] | Efficacy [4, 28]
30%: Efficacy (DIGSA; [25])
10%: Efficacy (DIGSA; [27])

CSc1nnc(C(C)(C)C)c(=O)n1N [metribuzin]
10%: Efficacy (Setaria viridis (SETVI); [25]) | pest or weed control at 5 g/ha (Eleusine indica (ELEIN); [29]) | Efficacy [3, 28] | Efficacy (Kochia scoparia (KCHSC); [28]) | Efficacy [6, 25]
30%: Efficacy (Setaria viridis (SETVI); [26]) | Efficacy [3, 26] | Efficacy [6, 26] | Efficacy [4, 25] | Efficacy [4, 26]
20%: Efficacy (DIGSA; [26]) | pest or weed control at 20 g/ha (Eleusine indica (ELEIN); [29]) | Efficacy [3, 25] | Efficacy (Kochia scoparia (KCHSC); [25]) | Efficacy (Kochia scoparia (KCHSC); [26]) | Efficacy [4, 27] | Efficacy [4, 28]
0%: Efficacy (Solanum nigrum (SOLNI); [25]) | Efficacy (Solanum nigrum (SOLNI); [26]) | Efficacy (Solanum nigrum (SOLNI); [27]) | Efficacy (Solanum nigrum (SOLNI); [28]) | Efficacy (DIGSA; [25]) | Efficacy (Setaria viridis (SETVI); [27]) | Efficacy (Setaria viridis (SETVI); [28]) | pest or weed control at 5 g/ha (Eleusine indica (ELEIN); [30]) | pest or weed control at 20 g/ha (Eleusine indica (ELEIN); [30]) | Efficacy [3, 27] | Efficacy (Kochia scoparia (KCHSC); [27]) | Efficacy [6, 27] | Efficacy [6, 28]
